This is an account of results in patent US20260347435A1, “y-SECRETASE INHIBITOR, Aß-PEPTIDE PRODUCTION INHIBITOR, AND PHARMACEUTICAL” (priority 2022, published 2026).

The target in series [1] is T1, human γ-secretase complex, APP as substrate (Homo sapiens, UniProt P49768).
T1 construct: substrate APPC55-Gal4, β-galactosidase reporter
The experiment in a line: β-galactosidase assay of γ-secretase-expressing yeast with related-art GSI, APP substrate. Type of series: cell-based.
Protocol: The yeast expressing the γ-secretase complex, the substrate APPC55-Gal4, and the three-finger toxin produced in the foregoing was inoculated in 1.5 mL of a SD-LWU medium, and the resultant was shake-cultured (180 rpm) at 30 °C until its turbidity became from 0.8 to 1.0. After that, the cultured product was centrifuged (15,000 rpm, 3 minutes, room temperature), and cells were recovered. The cells were washed with 1 mL of cooling water, and were then suspended in 30 μL of a Lysis buffer (20 mM Tris-HCl, pH: 8.0, 10 mM MgCl2, 50 mM KCl, 1 mM EDTA, 5% glycerol, and 1 mM DTT), followed by the addition of an appropriate amount of acid-treated glass beads (425 μm to 600 μm, Sigma-Aldrich Co. LLC) thereto. After that, the mixture was stirred with a vortex mixer so that the cells were crushed. The crushed liquid was centrifuged (15,000 rpm, 10 minutes, 4 °C) to provide a lysate. 80 Microliters of 4 mg/ml ortho-nitrophenyl-β-galactoside (ONPG) was added to the mixed liquid of 10 μL of the lysate and 400 μL of a Z buffer (60 mM Na2HPO4, 40 mM NaH2PO4-2H2O, 10 mM KCl, 1 mM MgSO4-7H2O, and 0.27% 2-mercaptoethanol) to start a reaction. […] After that, the absorbance (A420) of nitrophenol produced in the reaction liquid at 420 nm was measured. Further, the protein concentration of the lysate was determined by a Bradford method (Bio-Rad Laboratories, Inc.), and β-galactosidase activity was calculated [β-galactosidase unit/mg protein=1,000×A420/{time (min)×protein concentration (mg/μL)×liquid amount (μL)}].

Series [2] deals with T2, human γ-secretase complex, Notch1 as substrate (Homo sapiens, UniProt P49768).
T2 construct: substrate mouse Notch1(1704-1755)-Gal4, β-galactosidase reporter
Nature of the series: β-galactosidase assay of γ-secretase-expressing yeast with related-art GSI, Notch substrate. Type of series: cell-based. The settings on record: yeast (FIG. 7).
Protocol: The yeast expressing the γ-secretase complex, the substrate Notch-Gal4, and the three-finger toxin produced in the foregoing was inoculated in 15 mL of a SD-LWU medium, and the resultant was shake-cultured (180 rpm) at 30 °C until its turbidity became from 0.8 to 1.0. After that, a 1.5 mL aliquot of the cultured product was dispensed and centrifuged (15,000 rpm, 3 minutes, room temperature), and cells were recovered. The cells were washed with 1 mL of cooling water, and were then suspended in 30 μL of a Lysis buffer (20 mM Tris-HCl, pH: 8.0, 10 mM MgCl2, 50 mM KCl, 1 mM EDTA, 5% glycerol, and 1 mM DTT), followed by the addition of an appropriate amount of acid-treated glass beads (425 μm to 600 μm, Sigma-Aldrich Co. LLC) thereto. After that, the mixture was stirred with a vortex mixer so that the cells were crushed. The crushed liquid was centrifuged (15,000 rpm, 10 minutes, 4 °C) to provide a lysate. […] After that, the absorbance (A420) of nitrophenol produced in the reaction liquid at 420 nm was measured. Further, the protein concentration of the lysate was determined by a Bradford method (Bio-Rad Laboratories, Inc.), and β-galactosidase activity was calculated: β-galactosidase unit/mg protein=1,000×A420/{time (min)×protein concentration (mg/μL)×liquid amount (μL)}.

Series [3] relates to γ-secretase. Particulars: phase III clinical trials; trials stopped; cited from earlier work.
The subject of series [4] is γ-secretase. Particulars: verification experiment; pseudo-inhibitor; cited from earlier work.

With `C[C@H](NC(=O)Cc1cc(F)cc(F)c1)C(=O)N[C@H](C(=O)OC(C)(C)C)c1ccccc1` [DAPT], the “suppression of the cleavage of the APP” value in series [1] (yeast (FIG. 7)) was “suppressed the cleavage of each of the APP and the Notch”. Also, the “suppression of the cleavage of the Notch” value in series [2] was “suppressed the cleavage of each of the APP and the Notch”.
As to `NC(=O)[C@@H](CCC(F)(F)F)N(Cc1ccc(-c2ncon2)cc1F)S(=O)(=O)c1ccc(Cl)cc1` [avagacestat], the “serious side effects and deterioration of a cognitive function” value in the series with γ-secretase [3] is “serious side effects and the deterioration of a cognitive function were observed”.
`O=S(=O)(N[C@H](CO)C(C(F)(F)F)C(F)(F)F)c1ccc(Cl)s1` [begacestat]: the “suppression of the cleavage of the APP versus the cleavage of the Notch” value in series [1] (1 μM, 3 μM, and 10 μM, wild-type yeast and pdr1Δpdr3Δ strain, vs mock with dimethyl sulfoxide (FIG. 7)) is given as “the suppression of the cleavage of the APP was stronger than the suppression of the cleavage of the Notch”. Further, the APP-specific cleavage-suppressing effect entry in series [1] (yeast, APP versus Notch cleavage (FIG. 7)) was “APP-specific inhibition by begacestat was observed”.
As to `CC(C)[C@H](O)C(=O)N[C@@H](C)C(=O)N[C@@H]1C(=O)N(C)CCc2ccccc21` [semagacestat], in the series on γ-secretase [3], the “serious side effects and deterioration of a cognitive function” value is “serious side effects and the deterioration of a cognitive function were observed”. Further, in the series with γ-secretase [4], the “discharge of a decomposition product to the outside of a cell” value is reported as “inhibits the discharge of a decomposition product to the outside of a cell” and the “inhibition of Aβ production” value is listed as “does not inhibit Aβ production”.
